pEC50: −log10 of the molar value.

For this assay, the target named is FXR (Homo sapiens (Human), UniProt Q96RI1). Nature of the assay: FXR EC50 (FXR agonist potency reported with each Example). It is filed as cell-based.
FXR, sequence (Q96RI1 262-486): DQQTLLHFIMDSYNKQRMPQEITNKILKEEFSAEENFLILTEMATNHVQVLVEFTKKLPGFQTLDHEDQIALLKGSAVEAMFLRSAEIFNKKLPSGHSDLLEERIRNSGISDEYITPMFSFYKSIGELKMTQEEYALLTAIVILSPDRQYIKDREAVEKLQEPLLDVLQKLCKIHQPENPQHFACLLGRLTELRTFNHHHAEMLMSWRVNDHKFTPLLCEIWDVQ
`O=C(N(CC12CCC(c3nc(C4CC4)no3)(CC1)CC2)c1cccc(-c2noc(C(F)(F)F)n2)c1)C12CC(F)(C1)C2` [Example 108, N-((4-(3-cyclopropyl-1,2,4-oxadiazol-5-yl)bicyclo[2.2.2]octan-1-yl)methyl)-3-fluoro-N-(3-(5-(trifluoromethyl)-1,2,4-oxadiazol-3-yl)phenyl)bicyclo[1.1.1]pentane-1-carboxamide] had a pEC50 of 6.84.

`O=C(N(CC12CCC(c3nc(C4CC4)no3)(CC1)CC2)c1cccc(-c2cnn(CC(F)F)c2)c1)C12CC(F)(C1)C2` [Example 161, N-((4-(3-cyclopropyl-1,2,4-oxadiazol-5-yl)bicyclo[2.2.2]octan-1-yl)methyl)-N-(3-(1-(2,2-difluoroethyl)-1H-pyrazol-4-yl)phenyl)-3-fluorobicyclo[1.1.1]pentane-1-carboxamide] showed a pEC50 of 7.02. The pEC50 values of the last two compounds are within 0.2 log units of each other. As for `COCc1nc(-c2cccc(N(CC34CCC(c5nc(C6CC6)no5)(CC3)CC4)C(=O)C3CCC(F)(F)C3)c2)cs1` (stereo not drawn) [Example 74, N-((4-(3-cyclopropyl-1,2,4-oxadiazol-5-yl)bicyclo[2.2.2]octan-1-yl)methyl)-3,3-difluoro-N-(3-(2-(methoxymethyl)thiazol-4-yl)phenyl)cyclopentane-1-carb oxamide], the pEC50 was 6.66. In the case of `O=C(N(CC12CCC(c3nc(C4CC4)no3)(CC1)CC2)c1cccc(-c2cnn(C3COC3)c2)c1)C12CC(F)(C1)C2` [Example 150, N-((4-(3-cyclopropyl-1,2,4-oxadiazol-5-yl)bicyclo[2.2.2]octan-1-yl)methyl)-3-fluoro-N-(3-(1-(oxetan-3-yl)-1H-pyrazol-4-yl)phenyl)bicyclo[1.1.1]pentane-1-carboxamide], the pEC50 is 7.06. `Cc1noc(-c2cccc(N(CC34CCC(c5ccc(C6CC6)cc5)(CC3)CC4)C(=O)C(C)C)c2)n1` [Example 1, N-((4-(4-cyclopropylphenyl)bicyclo[2.2.2]octan-1-yl)methyl)-N-(3-(3-methyl-1,2,4-oxadiazol-5-yl)phenyl)isobutyramide] gave a pEC50 of 5.74. Against the preceding compound, the pEC50 is 1.32 log units lower.

The compound `O=C(C1CC(F)(F)C1)N(CC12CCC(c3nnc(C4CC4)o3)(CC1)CC2)c1cccc(-c2nnc(C3CC3)o2)c1` [Example 135, N-((4-(5-cyclopropyl-1,3,4-oxadiazol-2-yl)bicyclo[2.2.2]octan-1-yl)methyl)-N-(3-(5-cyclopropyl-1,3,4-oxadiazol-2-yl)phenyl)-3,3-difluorocyclobutane-1-carboxamide] had a pEC50 of 5.96.

In the case of `Cn1nc(-c2cccc(N(CC34CCC(c5noc(C(C)(C)C)n5)(CC3)CC4)C(=O)C34CC(F)(C3)C4)c2)cc1C(C)(C)C` [Example 214, N-((4-(5-(tert-butyl)-1,2,4-oxadiazol-3-yl)bicyclo[2.2.2]octan-1-yl)methyl)-N-(3-(5-(tert-butyl)-1-methyl-1H-pyrazol-3-yl)phenyl)-3-fluorobicyclo[1.1.1]pentane-1-carboxamide], the pEC50 was 7.05.

For the compound `O=C(N(CC12CCC(c3nc(C4CC4)no3)(CC1)CC2)c1cccc(-n2cc(C3CC3)nn2)c1)C12CC(F)(C1)C2` [Example 219, N-((4-(3-cyclopropyl-1,2,4-oxadiazol-5-yl)bicyclo[2.2.2]octan-1-yl)methyl)-N-(3-(4-cyclopropyl-1H-1,2,3-triazol-1-yl)phenyl)-3-fluorobicyclo[1.1.1]pentane-1-carboxamide], the pEC50 was 7.01. The value for `O=C(N(CC12CCC(c3nc(C4CC4)no3)(CC1)CC2)c1cccc(-c2cnn(-c3cccnc3)c2)c1)C12CC(F)(C1)C2` [Example 152, N-((4-(3-cyclopropyl-1,2,4-oxadiazol-5-yl)bicyclo[2.2.2]octan-1-yl)methyl)-3-fluoro-N-(3-(1-(pyridin-3-yl)-1H-pyrazol-4-yl)phenyl)bicyclo[1.1.1]pentane-1-carboxamide] was 6.79; that for `O=C(N(CC12CCC(c3nc(C4CC4)cs3)(CC1)CC2)c1cccc(-c2nc(C3CC3)no2)c1)C12CC(F)(C1)C2` [Example 100, N-(3-(3-cyclopropyl-1,2,4-oxadiazol-5-yl)phenyl)-N-((4-(4-cyclopropylthiazol-2-yl)bicyclo[2.2.2]octan-1-yl)methyl)-3-fluorobicyclo[1.1.1]pentane-1-carboxamide] was 6.79.

`O=C(C1CC(F)(F)C1)N(CC12CCC(c3nc(CC4CC4)no3)(CC1)CC2)c1cccc(-c2nc(CC3CC3)no2)c1` [Example 63, N-((4-(3-(cyclopropylmethyl)-1,2,4-oxadiazol-5-yl)bicyclo[2.2.2]octan-1-yl)methyl)-N-(3-(3-(cyclopropylmethyl)-1,2,4-oxadiazol-5-yl)phenyl)-3,3-difluorocyclobutane-1-carboxamide] showed a pEC50 of 6.25. The value for `O=C(C1CC(C(F)F)C1)N(CC12CCC(c3nnc(C4CC4)o3)(CC1)CC2)c1cccc(-c2nc(C3CC3)no2)c1` (stereo not drawn) [Example 139, N-(3-(3-cyclopropyl-1,2,4-oxadiazol-5-yl)phenyl)-N-((4-(5-cyclopropyl-1,3,4-oxadiazol-2-yl)bicyclo[2.2.2]octan-1-yl)methyl)-3-(difluoromethyl)cyclobutane-1-carboxamide] was 6.42. To `CC(C)(C)c1nc(C23CCC(CN(C(=O)C45CC(F)(C4)C5)c4cccc(-c5nc(C6CC6)no5)c4)(CC2)CC3)no1` [Example 119, N-((4-(5-(tert-butyl)-1,2,4-oxadiazol-3-yl)bicyclo[2.2.2]octan-1-yl)methyl)-N-(3-(3-cyclopropyl-1,2,4-oxadiazol-5-yl)phenyl)-3-fluorobicyclo[1.1.1]pentane-1-carboxamide] belongs 7.82; to `CC(C)(C)c1nc(C23CCC(CN(C(=O)C45CC(F)(C4)C5)c4cc(-c5cn[nH]c5)ccn4)(CC2)CC3)no1` [Example 211, N-(4-(1H-pyrazol-4-yl)pyridin-2-yl)-N-((4-(5-(tert-butyl)-1,2,4-oxadiazol-3-yl)bicyclo[2.2.2]octan-1-yl)methyl)-3-fluorobicyclo[1.1.1]pentane-1-carboxamide], 7.77; to `O=C(C1CC(F)(F)C1)N(CC12CCC(c3nc(C4CC4)cs3)(CC1)CC2)c1cccc(-c2nc(C3CC3)no2)c1` [Example 101, N-(3-(3-cyclopropyl-1,2,4-oxadiazol-5-yl)phenyl)-N-((4-(4-cyclopropylthiazol-2-yl)bicyclo[2.2.2]octan-1-yl)methyl)-3,3-difluorocyclobutane-1-carboxamide], 6.20. The value for `Cc1cnc(C23CCC(CN(C(=O)C45CC(F)(C4)C5)c4cccc(-c5nc(C6CC6)no5)c4)(CC2)CC3)o1` [Example 37, N-(3-(3-cyclopropyl-1,2,4-oxadiazol-5-yl)phenyl)-3-fluoro-N-((4-(5-methyloxazol-2-yl)bicyclo[2.2.2]octan-1-yl)methyl)bicyclo[1.1.1]pentane-1-carboxamide] was 7.09. Compound `CC(C)(C)c1noc(C23CCC(CN(C(=O)C45CC(F)(C4)C5)c4cncc(-c5nc(C6CC6)no5)c4)(CC2)CC3)n1` [Example 207, N-((4-(3-(tert-butyl)-1,2,4-oxadiazol-5-yl)bicyclo[2.2.2]octan-1-yl)methyl)-N-(5-(3-cyclopropyl-1,2,4-oxadiazol-5-yl)pyridin-3-yl)-3-fluorobicyclo[1.1.1]pentane-1-carboxamide] gave a pEC50 of 6.24. To `Cn1nc(C2CC2)cc1C12CCC(CN(C(=O)C34CC(F)(C3)C4)c3cncc(-c4nc(C5CC5)no4)c3)(CC1)CC2` [Example 205, N-(5-(3-cyclopropyl-1,2,4-oxadiazol-5-yl)pyridin-3-yl)-N-((4-(3-cyclopropyl-1-methyl-1H-pyrazol-5-yl)bicyclo[2.2.2]octan-1-yl)methyl)-3-fluorobicyclo[1.1.1]pentane-1-carboxamide] belongs 6.66; to `CCOc1nnc(-c2cccc(N(CC34CCC(c5nc(C6CC6)no5)(CC3)CC4)C(=O)C3CCC(F)(F)C3)c2)o1` (stereo not drawn) [Example 55, N-((4-(3-cyclopropyl-1,2,4-oxadiazol-5-yl)bicyclo[2.2.2]octan-1-yl)methyl)-N-(3-(5-ethoxy-1,3,4-oxadiazol-2-yl)phenyl)-3,3-difluorocyclopentane-1-carboxamide], 6.90. The value for `O=C(N(CC12CCC(c3nc(C4CCOCC4)no3)(CC1)CC2)c1cccc(-c2nc(C3CC3)no2)c1)C12CC(F)(C1)C2` [Example 90, N-(3-(3-cyclopropyl-1,2,4-oxadiazol-5-yl)phenyl)-3-fluoro-N-((4-(3-(tetrahydro-2H-pyran-4-yl)-1,2,4-oxadiazol-5-yl)bicyclo[2.2.2]octan-1-yl)methyl)bicyclo[1.1.1]pentane-1-carboxamide] was 6.92.

`CC1(c2nc(-c3cccc(N(CC45CCC(c6nc(C(F)F)no6)(CC4)CC5)C(=O)C45CC(F)(C4)C5)c3)no2)COC1` [Example 173, N-((4-(3-(difluoromethyl)-1,2,4-oxadiazol-5-yl)bicyclo[2.2.2]octan-1-yl)methyl)-3-fluoro-N-(3-(5-(3-methyloxetan-3-yl)-1,2,4-oxadiazol-3-yl)phenyl)bicyclo[1.1.1]pentane-1-carboxamide] gave a pEC50 of 6.86.

As to `COc1cc(-c2cccc(N(CC34CCC(c5nc(C6CC6)no5)(CC3)CC4)C(=O)C34CC(F)(C3)C4)c2)ccn1` [Example 229, N-((4-(3-cyclopropyl-1,2,4-oxadiazol-5-yl)bicyclo[2.2.2]octan-1-yl)methyl)-3-fluoro-N-(3-(2-methoxypyridin-4-yl)phenyl)bicyclo[1.1.1]pentane-1-carboxamide], the pEC50 was 6.81. Turning to `O=C(C1CCC(F)(F)C1)N(CC12CCC(c3nnc(C4CC4)o3)(CC1)CC2)c1cccc(-c2nnc(C3CC3)o2)c1` (racemic) [Example 133, N-((4-(5-cyclopropyl-1,3,4-oxadiazol-2-yl)bicyclo[2.2.2]octan-1-yl)methyl)-N-(3-(5-cyclopropyl-1,3,4-oxadiazol-2-yl)phenyl)-3,3-difluorocyclopentane-1-carboxamide], the pEC50 is 6.53. This pEC50 lies 0.28 log units lower than the previous one. To `CC(C)(C)c1noc(C23CCC(CN(C(=O)C4CN(C(=O)C(F)(F)F)C4)c4cccc(-c5nc(C6CC6)no5)c4)(CC2)CC3)n1` [Example 193, N-((4-(3-(tert-butyl)-1,2,4-oxadiazol-5-yl)bicyclo[2.2.2]octan-1-yl)methyl)-N-(3-(3-cyclopropyl-1,2,4-oxadiazol-5-yl)phenyl)-1-(2,2,2-trifluoroacetyl)azetidine-3-carboxamide] belongs 5.31.

The record behind these values is patent publication US11254663B2 (BRISTOL-MYERS SQUIBB COMPANY, priority 2019, dated 2022).
